# System: T1, garlic peroxidase (Allium sativum peroxidase)
# T1 construct: gene class III plant peroxidase; native, partially purified from peeled garlic (ammonium sulphate, dialysis, Sephadex G-200)
# Test: absorbance change on o-dianisidine oxidation; Lineweaver-Burk plot
# Assay type: biochemical
# Conditions: co-substrate H2O2; 0.05 M sodium phosphate pH 6.0; 20-120 mM o-dianisidine; partially purified enzyme
structure (smiles),measurement,value
COc1cc(-c2ccc(N)c(OC)c2)ccc1N [o-dianisidine],Km,25 mM

# Source: publication PMC4226186, “Biobleaching of Industrial Important Dyes with Peroxidase Partially Purified from Garlic” (The Scientific World Journal, 2014)
